# Data as given in patent publication US8361516B2, “Composition comprising sarsasapogenin” (priority 2006, dated 2013).
# Columns and labels:
# [1] = tested on: 3T3-L1 cells; assay: Stimulation of lipid uptake, red oil staining with image analysis; type: cell-based; conditions: mean for n = 3 tests
# Procedure: Principle: adipocyte differentiation is a decisive stage in the transformation of pre-adipocytes into lipid-laden mature adipocytes. The intracellular accumulation of lipids is determined by conventional red oil staining (neutral lipid marker). The stained lipids can then be quantified under the microscope.
# Protocol: 3T3-L1 cells were inoculated and cultured for 4 days (multiplication). This was followed by a differentiation phase (incubation with the conventional differentiation cocktail) and a maturation phase (maturation cocktail) in the absence or presence of sarsasapogenin at various concentrations.
# At the end of that period, the cells were washed, fixed and stained with red oil. The cell layers were digitally photographed and the red staining quantified by image analysis.
# The percentage red oil areas, shown in table 1, were expressed relative to the untreated control cells and the test was validated by comparison with pioglitazone (10 μM), the positive control for differentiation stimulation.
# [2] = tested on: human adipocytes; assay: Stimulation of lipid uptake in human adipocytes; type: cell-based
# Excerpt: 4. Stimulation of Lipid Uptake by 3T3-L1 Cells and Human Adipocytes
# The results were reproduced using human adipocytes.
# [3] = tested on: mature adipocytes; assay: Gene expression profile, effect on mature adipocytes (CodeLink Whole Genome chips); type: cell-based, Human; conditions: mature adipocytes exposed 24 h
# Procedure: (§1) Two studies were conducted: one addressed the effect of sarsasapogenin on differentiation using a pre-adipocyte culture; the other addressed the effect of sarsasapogenin on mature adipocytes.
# (§2) Human pre-adipocyte cells were inoculated and cultured (multiplication) for 5 days. Then: • either the cells were exposed to the induction medium in the presence or absence of sarsasapogenin for 8 or 24 h before culture arrest (study of the effect of sarsasapogenin on differentiation), • or the cells were exposed to the differentiation medium for 10 days, yielding mature adipocytes, then exposed or not exposed to sarsasapogenin for 24 h (study of the effect of sarsasapogenin on maturation).
# (§3) At each time point, the mRNA of the cells was extracted using a commercially available kit (Roche Kit V6—Extraction of total RNA). In parallel, solvent controls were run and subjected to extraction in the same manner. The expression profile of the gene sequences was determined using CodeLink Whole Genome chips for each sample of RNA purified. The values obtained were normalized on the controls.
# [4] = tested on: 3T3-L1 cells; assay: Stimulation of differentiation: G3PDH activity; type: cell-based; conditions: mean for n = 3 tests
# Procedure: Principle: after an in vivo proliferation phase, the pre-adipocytes begin differentiating under the influence of specific endogenous factors (in particular, glucocorticoids and insulin). In vitro, those factors are included in the conventional cocktail used to trigger differentiation.
# The maintenance or amplification of differentiation when the cells are subsequently cultured in a simple maintenance medium is determined by assay of glycerol-3-phosphate dehydrogenase, G3PDH (or GPDH). The enzyme is involved in energy metabolism. Its activity regularly increases through the differentiation process.
# Protocol: as previously, 3T3-L1 cells were cultured to confluence, then underwent differentiation induction with the conventional cocktail and were incubated in the absence or presence of sarsasapogenin at various concentrations. After 3 days of incubation, the differentiation cocktail was replaced by culture maintenance medium in the presence or absence of sarsasapogenin. After 3 days of incubation, the cell layers were harvested and G3PDH activity determined.
# [5] = tested on: 3T3-L1 cells; assay: Residual proliferation capability during the differentiation phase (Hoechst test); type: cell-based; conditions: 3 days with differentiation cocktail
# Procedure: The pre-adipocytes undergo a multiplication phase (clonal expansion) before beginning to differentiate.
# A product stimulating proliferation would thus enable adipocytes that have already entered the differentiation phase to maintain a replication capability.
# Protocol: 3T3-L1 cells were inoculated and cultured to confluence over 4 days (clonal expansion). The conventional differentiation cocktail was added to the culture and the cells were incubated in the absence (control) or in the presence of rising concentrations of sarsasapogenin for 3 days. Following incubation, the cell layers were harvested and subjected to a Hoechst test to quantify cell proliferation vs. the proliferation of the control cells and the cells incubated in the presence of pioglitazone (positive control).
# [6] = tested on: Human pre-adipocyte cells; assay: Gene expression profile, effect on differentiation (pre-adipocyte culture, CodeLink Whole Genome chips); type: cell-based
# Procedure: as §1, §2, §3
# [7] = time points 8 and 24 h of differentiation
# [8] = values normalized on the controls, time point not stated
compound,measurement,setting,value
"C[C@H]1CC[C@@]2(OC1)O[C@H]1C[C@H]3[C@@H]4CC[C@@H]5C[C@@H](O)CC[C@]5(C)[C@H]4CC[C@]3(C)[C@H]1[C@@H]2C [Sarsasapogenin, (3β, 5β, 25-S)-Spirostan-3-ol]",% change in red oil content vs. control,[1]; 5 μM,+135%
same,% change in red oil content vs. control,[1]; 10 μM,+274%
same,% change in red oil content vs. control,[1]; 17.5 μM,+492%
same,% change in red oil content vs. control,"[1]; 17.5 μM, listed as sarsasapogenin",greater than 492%
same,lipid incorporation results in human adipocytes,[2],reproduced
same,status of gene p21,[3],activated status of gene p21 was maintained
same,Change in G3PDH activity vs. control (%),[4]; 5 μM,+103% (p < 0.01)
same,Change in G3PDH activity vs. control (%),[4]; 10 μM,+201% (p < 0.01)
same,Change in G3PDH activity vs. control (%),[4]; 15 μM,+429% (p < 0.01)
same,Change in G3PDH activity vs. control (%),[4]; 17.5 μM,+535% (p < 0.01)
same,Proliferation vs. Control,[5]; 5 μM,+20.5% (p < 0.01)
same,Proliferation vs. Control,[5]; 10 μM,+31.6% (p < 0.01)
same,Proliferation vs. Control,[5]; 20 μM,+35.2% (p < 0.01)
same,activation of the gene coding for protein MNT (MAX binding protein),"[6]; after 8 and 24 h of differentiation, normalized on solvent controls",induces activation
same,cyclin D3 gene up-regulation,[6]; normalized on the controls,markedly up-regulated
same,gene coding for Kruppel-like factor 5 (KLF5),[6]; normalized on the controls,increase
same,induction of NPTXR / pentraxin-related gene,"[6]; time point 24 h, normalized on the controls",> 7
same,SLC2A5/GLUT5 gene activation,[6]; [7],activated
same,gene RAFTLIN activation,[6]; [7],activated
same,induction of adipose differentiation-related protein (ADRP) or adipophilin,"[6]; values normalized on the controls, study and time point not stated",> 4
same,gene COPS3 up-regulation,[6]; [8],> 5
same,gene COPS5 up-regulation,[6]; [8],> 5
same,increase in KLK10 (kallikrein),[6]; [8],> 10
"CCc1ccc(CCOc2ccc(CC3SC(=O)NC3=O)cc2)nc1 (stereo not shown) [pioglitazone, reference compound]",% change in red oil content vs. control,[1]; 10 μM,+359%
same,Proliferation vs. Control,[5]; 10 μM,+49% (p < 0.01)
